Marks after values point to notes of the source that are not given here.
Experiments:
male Wistar rats [1] = test: Amount of bile and chloride ion concentration in bile in rats after repeated oral dosing; format: in vivo, rat; settings: 100 μg/kg oral three times a day for seven days, Mean ± S.E.
Experimental: Test substance 2: 13,14-dihydro-15-keto-16,16-difluoro-18(S)-methyl-prostaglandin E1, which is a ClC-2 channel opener was used. Test substance 2 of 100 μg/kg was orally administered to male Wistar rats (six weeks old, weight: 180-210 g) three times a day for seven days. The control group received the same amount of the vehicle (0.01% polysorbate 80 and 0.5% ethanol in distilled water). In the following morning of the final administration day (about 17 hours after the final administration), a polyethylene catheter (PE10, Becton Dickinson and Company) was inserted into the rats' common bile duct under ether anesthesia. The rats were placed in a Borrmann's cage and were left for 1 hour to awake from anesthesia. Bile discharged during one hour from one to two hours after the insertion of the catheter was collected to measure the amount of bile. Chloride ion concentration was measured with a chloride counter (CL-7, Hiranuma Sangyo Co., Ltd.). Student's t-test was used in comparing the control group and the group receiving test substance 2. P values less than 0.05 were considered to be statistically significant.

removed liver [2] = test: Bile amount and chloride ion in bile of removed perfused rat liver; settings: 10 μM in Krebs-Ringer perfusate, 30 minutes, Mean ± S.E.
Experimental: Male Wistar rats were used. The common bile duct of both the test and the control groups were catheterized to collect bile under pentobarbital sodium anesthesia. After the catheter was inserted and fixed in the portal vein, Krebs-Ringer solution (pH 7.4, 37° C.) comprising sodium taurocolate (30 μmol/1) saturated with 95% O2 and 5% CO2 was infused at a constant flow rate of 4.0 mL/min/g liver weight by means of peristaltic pump. The liver was removed under perfusion. For the test group, test substance 2 was added to the Krebs-Ringer solution. Thirty minutes after the perfusion, the amount of bile of both the test group and the control group was measured. Chloride ion concentration in the bile was also measured. The amount of bile at 30 minutes after the administration of test substance 2 or vehicle was shown as relative value (%) to the amount immediately before the administration.

removed liver [3] = test: Organ preservation: bile flow after 16-hour cold storage and reperfusion of rat liver; settings: 30 minutes after reperfusion, Mean ± S.D.
Experimental: Male Wistar rats (weight: about 280 g) were anesthetized with intraperitoneal injection of pentobarbital sodium (50 mg/kg) and hepatic-portal region was exposed by abdominal midline incision. The common bile duct was cannulated and the portal stem was inserted with a 19 gauge Surflo® needle equipped with a three way stopcock. […] The liver was cut off from the tissues around it, removed outside the body and subjected to extracorporeal perfusion. The liver was subjected to a 15-minute pre-perfusion until its oxygen consumption achieved to a constant state. Then the perfusate was replaced with an organ preservative solution (University of Wisconsin solution; (U-W solution) at 4° C. Immediately after the replacement was completed, the liver connected with the three-way stopcock was removed from the perfusion cycle and the inlet was clamped. Then the liver was put in the preservative solution (U-W solution) at the same temperature and stored for 16 hours. After the 16-hour storage, the liver was reperfused with Krebs-Ringer Buffer. Thirty minutes after the reperfusion, the amount of bile flow was measured. (1) Effect of substance 2 added to the organ preservative solution (U-W solution) In the above perfusion protocol, test substance 2 at the concentration of 10 μM was added to the preservative solution (U-W solution). […]

male Wistar rats [4] = test: Indomethacin induced ulcer model; format: in vivo, rat; settings: for Ulcer Coefficient: Mean ± S.E.
Experimental: Effects on acute ulcer was determined by means of water-immersion restraint stress induced ulcer model and indomethacin induced ulcer model.
Test substance 1 was orally administered to male Wistar rats (weight: 180-210 g) that had been fasted for 24 hours. In the water-immersion restraint stress induced ulcer model, 10 minutes after the oral administration of test substance 1, the rats were bound in a stress cage and immersed in water at 23° C. up to the level of their chest xiphisternums. Six hours after the immersion, the animals were killed by cervical dislocation. In the indomethacin induced ulcer model, immediately after the oral administration of test substance 1 or 2, indomethacin 10 mg/kg was orally administered. Five hours after the administration, the animals were killed by cervical dislocation. The stomachs removed from the animals were fixed with 1% formalin and then dissected along the greater curvatures. The major axis (mm) of each ulcer formed in the stomach was measured. The major axes of the ulcers in each animal were totaled, which were expressed as ulcer coefficients. Based on the ulcer coefficients of the control group and those of the groups receiving test substances, the ulcer inhibitory rates were calculated.

male Wistar rats [5] = test: Mercuric chloride induced large intestinal ulcer; format: in vivo, rat; settings: for Gross Ulcer Area: 30 min before and 2 and 6 hours after HgCl2, Mean ± S.E.
Experimental: Mercuric chloride (HgCl2) of 4 mg/kg was intramuscularly administered to male Wistar rats (weight: 245-290 g) to induce ulcer in the large intestine. Thirty minutes before, and 2 and 6 hours after the administration of HgCl2, test substance 2 was subcutaneously administered. The control group received a vehicle. Twenty-four hours after the administration of HgCl2, the animals were bled to death under ether anesthesia. After abdominal incision, the upper portion of the ileocecal opening and the upper portion of the anus were ligated, and the large intestine region from the caecum to the rectum was removed. The removed large intestine was fixed with 1% formalin and then dissected, and the major and minor axes of ulcer were measured with a caliper under a stereoscopic microscope. The product of the major axis multiplied by the minor axis was expressed as the ulcer area. Further, the total ulcer area was calculated in each animal, which was expressed as the gross ulcer area.

male Wistar rats [6] = test: Taurocholic acid and trypsin induced pancreatitis, serum amylase; format: in vivo, rat; settings: 100 μg/kg subcutaneous
Experimental: Male Wistar rats (weight: 240-270 g) that had been fasted overnight were subjected to abdominal incision under pentobarbital sodium anesthesia. Then a mixed solution of 10% taurocholic acid 3 mL and 0.3% trypsin solution 0.3 mL was antidroicly infused from the bile duct duodenum opening to induce pancreatitis. Thirty minutes before, and 2 and 4 hours after the infusion of the mixed solution of taurocholic acid and trypsin, test substance 2 was subcutaneously administered. The control group received the vehicle. Six hours after the infusion of the mixed solution of taurocholic acid and trypsin, the blood was collected to measure the serum amylase activity.

Beagle dogs = test: Cardiac output in dog model of cardiac incompetence; format: in vivo; settings: 30 minutes after administration relative to immediately before, Mean ± S.E.
Experimental: Beagle dogs (weight: 8.8-10.3 kg) were used, and under thiopental sodium and α-chloralose anesthesia, their cardiac output was guided from a FJ probe equipped on the aortic arch via a rectangular wave electromagnetic blood flow meter (MFV-3100, Nihon Koden) to a blood flow-indicating unit and recorded in a recorder. The model of cardiac incompetence was prepared in accordance with the following method. A continuous infusion of lactate Ringer solution (5 mL/body/min) having dissolved therein DL-propranolol (0.06 mg/mL) from a catheter inserted into the left femoral vein started diastolic overload. Thirty minutes later, the left anterior descendence (LAD) was ligated. […] At the time the cardiac output was reduced by at least 20% from that before the diastolic overload, the dose of methoxamine was reduced to 5 μg/kg/min and the infusion of lactate Ringer solution was reduced to 3 mL/kg/min, which was continued until the completion of experiments. Sixty to 90 minutes after the cardiac output was reduced by at least 20% and other hemodynamic parameters were stabled, test substance 2 was administered via a cannula indwelled in the duodenum. The control group received a vehicle. […]

With CC[C@H](C)CC(F)(F)C(=O)CC[C@H]1[C@H](O)CC(=O)[C@@H]1CCCCCCC(=O)O [Test Sub. 2, 13,14-dihydro-15-keto-16,16-difluoro-18(S)-methyl-prostaglandin E1] the “Chloride Ion Concentration in Bile” value (male Wistar rats [1]) was 98.4 ± 1.8 mEq/L, the Amount of Bile (male Wistar rats [1]; bile collected during one hour) was 492 ± 36.7 µL and the “Chloride Ion Concentration in Bile” value (removed liver [2]) was 0.353 ± 0.009 μM/min/g liver. For the same molecule, the “Relative Amount of Bile” value (removed liver [2]; relative to amount immediately before administration) was 126.2 ± 9.0 %, the “Amount of Bile Flow” value (removed liver [3]; 10 μM added to the perfusate during reperfusion) was 2.67 ± 0.31 μL/min/g liver and the “Amount of Bile Flow” value (removed liver [3]; 10 μM added to the preservative solution (U-W solution)) was 2.43 ± 0.10 μL/min/g liver. The “Ulcer Inhibitory Rate” value (male Wistar rats [4]; 1 μg/kg oral) was 58.7%, the “Ulcer Coefficient” value (male Wistar rats [4]; 1 μg/kg oral) was 35.7 ± 8.3 and the “Ulcer Inhibitory Rate” value (male Wistar rats [4]; 3 μg/kg oral) was 65.3%. The “Ulcer Coefficient” value (male Wistar rats [4]; 3 μg/kg oral) was 30.0 ± 4.6, the “Ulcer Inhibitory Rate” value (male Wistar rats [4]; 10 μg/kg oral) was 77.2% and the “Ulcer Coefficient” value (male Wistar rats [4]; 10 μg/kg oral) was 19.7 ± 4.8. The “Ulcer Inhibitory Rate” value (male Wistar rats [5]; 10 μg/kg subcutaneous) was 54.3%, the “Gross Ulcer Area” value (male Wistar rats [5]; 10 μg/kg subcutaneous) was 15.2 ± 15.8 mm^2 and the “Ulcer Inhibitory Rate” value (male Wistar rats [5]; 1000 μg/kg subcutaneous) was 85.3%. For the same molecule, the “Gross Ulcer Area” value (male Wistar rats [5]; 1000 μg/kg subcutaneous) was 3.7 ± 8.3** mm^2, the serum amylase (male Wistar rats [6]; 30 min before and 2 and 4 hours after infusion, blood at six hours, Mean ± S.E.) was 2430 ± 417 IU/L and the “Inhibitory Rate” value (male Wistar rats [6]; serum amylase) was 22.6%. For the same molecule, the “Relative Cardiac Output” value (Beagle dogs; 100 μg/kg intraduodenal) was 108.7 ± 0.47 % and the “Relative Cardiac Output” value (Beagle dogs; 300 μg/kg intraduodenal) was 117.8 ± 2.42 %.
